pIC50: −log10 of the molar value.
Target: T1, human KSP motor domain (KSP(367H)) (Homo sapiens, UniProt P52732)
T1 construct: were used to amplify the motor domain and the neck linker region; made in house; host or cells: E. coli BL21 (DE3)
T1 sequence (P52732 18-359 limits assumed): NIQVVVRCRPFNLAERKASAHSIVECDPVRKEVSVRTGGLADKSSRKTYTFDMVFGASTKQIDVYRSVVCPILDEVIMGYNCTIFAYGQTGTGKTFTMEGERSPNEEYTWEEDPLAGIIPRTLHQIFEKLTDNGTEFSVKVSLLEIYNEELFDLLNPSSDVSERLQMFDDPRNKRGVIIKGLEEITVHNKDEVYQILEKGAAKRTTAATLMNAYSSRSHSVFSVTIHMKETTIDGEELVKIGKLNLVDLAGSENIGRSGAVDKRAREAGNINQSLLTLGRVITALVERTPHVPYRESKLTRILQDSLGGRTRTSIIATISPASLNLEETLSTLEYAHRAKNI
Test: Kinesin ATPase In Vitro Assay
Format: biochemical
Conditions: human poly-histidine tagged KSP motor domain with microtubules, 1 mM ATP, 23° C.
Description: I. Kinesin ATPase In Vitro Assay
Cloning and Expression of Human Poly-Histidine Tagged KSP Motor Domain_(KSP(367H))
Plasmids for the expression of the human KSP motor domain construct were cloned by PCR using a pBluescript full length human KSP construct (Blangy et al., Cell, vol. 83, pp 1159-1169, 1995) as a template. The N-terminal primer 5′-[…] (SEQ.ID.NO.: 1) and the C-terminal primer 5′-[…] […]lCAGGCTTATTCAATAT (SEQ.D.NO.: 2) were used to amplify the motor domain and the neck linker region. The PCR products were digested with AseI and XhoI, ligated into the NdeI/XhoI digestion product of pRSETa (Invitrogen) and transformed into E. coli BL21 (DE3).
Cells were grown at 37° C. to an OD600 of 0.5. […]
The kinesin motor domain is incubated with microtubules, 1 mM ATP (1:1 MgCl2: Na-ATP), and compound at 23° C. in buffer containing 80 mM K-HEPES (pH 7.0), 1 mM EGTA, 1 mM DTT, 1 mM MgCl2, and 50 mM KCl. […] Free phosphate from the ATP hydrolysis reaction is measured via a quinaldine redlammonium molybdate assay by adding a […] volume of quench C (e.g., to a mixture of 40 μl reaction volume+40 μl stop buffer is then added 120 μl quench C). […] Quench C is a 2:1 ratio of quench A:quench B The reaction is incubated for 5-10 minutes at 23° C., and the absorbance of the phospho-molybdate complex is measured at 540 nm.

pIC50	Compound
≥ 4.30	O=C1CC[C@@H]2CC(c3cc(F)ccc3F)=C[C@@H](c3ccccc3)N12 [1-5, (−)-(5S,8aR)-7-(2,5-difluorophenyl)-5-phenyl-1,5,8,8a-tetrahydroindolizin-3(2H)-one]
≥ 4.30	O=C1CC[C@@H]2C=C(c3cc(F)ccc3F)C[C@@H](c3ccccc3)N12 [1-6, (+)-(5S,8aR)-7-(2,5-difluorophenyl)-5-phenyl-1,5,6,8a-tetrahydroindolizin-3(2H)-one]

— patent publication US7307085B2, “Mitotic kinesin inhibitors” (Merck & Co., Inc., priority 2003, dated 2007)
